Data set [1] is described as follows: 28-day repeat-dose subcutaneous toxicity and toxicokinetics in rats. The note with it: Sprague Dawley, rat, plasma, subcutaneous; day 27; lowest dose of 1.81 mg/kg/day. Format: in vivo, Sprague Dawley rats. From the text: (§1) The remaining 5 rats per group in the control and high dose groups were then allowed a 14-day recovery period following treatment. Parameters evaluated included mortality (twice daily) clinical signs, food consumption (weekly), body weights (weekly), ophthalmoscopy (pre-dosing and prior to necropsy), hematology and clinical chemistry (Week 4), gross pathology, organ weights, and histopathology for all tissues in all dose groups. […] Ophthalmological examinations were unremarkable. […] Secondary changes included increased spleen weights and changes in other male reproductive organs. An increase in adrenal weights may have been related to a stress response. Macroscopic changes at necropsy included small testes (middle and high dose) and lesions apparent at the injection sites in some animals at all dose levels.
(§2) At recovery, only effects in male reproductive organs were evident at the highest dose, with skin lesions still evident in some animals at the highest dose. […] Cmax and AUC were generally higher at the end of the study compared to day 1. No gender differences were apparent.

Data set [2] concerns Sprague Dawley rats. The description is as above. The class given is in vivo.
Excerpt: as §1, §2

Consider one compound from patent US20170226139A1, “CRYSTALLINE SALTS OF (Z)-O-OCTADEC-9-EN-1-YL O,O-DIHYDROGEN PHOSPHOROTHIOATE” (priority 2013, published 2017).

Each structure is given as a SMILES string.

As for `CCCCCCCC/C=C\CCCCCCCCOP(O)(O)=S` [Rx100.L-Lysine, (Z)—O-octadec-9-en-1-yl O,O-dihydrogen phosphorothioate], the AUC (usually the area under the concentration-time curve, a measure of exposure) at 27 day in data set [1] was 5040 ng·h/mL. Further, the mortality result in data set [2] (28 days SC, 1.81, 6.33 and 18.1 (later 12.7) mg/kg/day) is “All animals survived the treatment period except for one high dose female”. In addition, in data set [2] (28 days SC, dose relationship to incidence and severity), the injection site lesions entry was “discoloration, scabbing, and swelling was observed in all treatment groups”. For the same compound, the clinical chemistry changes entry in data set [2] (at >6.33 mg/kg) was “mildly lower albumin concentration and A/G ratio, higher globulin concentration and moderately higher triglycerides”. The liver weights entry in data set [2] (both genders) is “dose related increased liver weights in the middle and high dose groups”. Moreover, the body weight gains entry in data set [2] (high dose) was “reduced”. In data set [2] (males), the NOAEL result is given as “could not be clearly established” and the testicular weights result is listed as “dose related decreased testicular weights in all groups of males”. For the same compound, in data set [2] (middle and high dose levels), the “hematology, red cell changes” value was “lower red cell parameters and higher reticulocyte counts”. Besides, in data set [2] (rat, in vivo), the coagulation studies result was “lower APPT in the females at the high dose and higher fibrinogen levels at all doses”; the “hematology, white cell parameters and platelets” value is “increased leukocyte, neutrophil, eosinophil and basophil counts and increased platelets”; the “histopathology, injection sites” value is reported as “chronic mixed cell inflammation at all doses”; the “histopathology, liver” value was “dose related increased hepatocyte vacuolation at all doses”. Further, in data set [2] (rat, in vivo), the “histopathology, testes” value was “degeneration and necrosis of the seminiferous tubules in all animals at the middle and high dose and in one animal at the low dose”; the ophthalmological examinations entry is reported as “unremarkable”; the “toxicokinetics, plasma concentrations” value is given as “dose related increases in plasma concentrations”. In addition, in data set [2] (some animals at 18.1/12.7 mg/kg), the liver enzymes entry is recorded as “elevated liver enzymes”.
